Assay results as given in ChEMBL document CHEMBL6103554, “Neratinib derivative 7A induces apoptosis in colon cancer cells via the p53 pathway” (Bioorg Med Chem Lett, 2025).
The source made the active and inactive calls. The rule behind the calls is not given here.

Experiments:
[1] = test system: HCT-116; experiment: Cytotoxicity against human HCT-116 cells assessed as inhibition rate incubated for 48 hrs by MTT; type: functional, cell-based; details: HCT-116, 48 h
[2] = test system: HeLa; experiment: Cytotoxicity against human HeLa cells assessed as inhibition rate incubated for 48 hrs by MTT; type: functional, cell-based
[3] = test system: MDA-MB-231; experiment: Cytotoxicity against human MDA-MB-231 cells assessed as inhibition rate incubated for 48 hrs by MTT; type: functional, cell-based; details: MDA-MB-231, 48 h
[4] = test system: A498; experiment: Cytotoxicity against human A498 cells assessed as inhibition rate incubated for 48 hrs by MTT; type: functional, cell-based; details: A498, 48 h
[5] = test system: HCT-116; experiment: Inhibition of cell proliferation in human HCT-116 cells at 10 uM by colony formation assay relative to control; type: functional, cell-based
[6] = test system: HCT-116; experiment: Inhibition of cell adhesion in human HCT-116 cells at 5 uM; type: functional, cell-based
[7] = test system: HCT-116; experiment: Inhibition of cell adhesion in human HCT-116 cells at 10 uM; type: functional, cell-based
[8] = test system: HCT-116; experiment: Inhibition of cell migration in human HCT-116 cells assessed as repair capacity at 5 to 10 uM measured upto 48 hrs by scratch assay; type: functional, cell-based; details: dose 5-10 µM
[9] = test system: HCT-116; experiment: Inhibition of cell invasion in human HCT-116 cells at 5 uM by Transwell assay; type: functional, cell-based
[10] = test system: HCT-116; experiment: Activation of TNFR-mediated TNF signaling pathway in human HCT-116 cells by GSEA analysis; type: cell-based; details: filed as activator
[11] = biological target: Cellular tumor antigen p53 (Homo sapiens) (UniProt P04637); experiment: Activation of p53 signaling pathway in human HCT-116 cells by GSEA analysis; type: cell-based; details: filed as activator
[12] = test system: HCT-116; experiment: Induction of DNA damage in human HCT-116 cells assessed as upregulation of gamma-H2AX level incubated for 24 hrs by immunoblotting analysis; type: functional, cell-based; details: dose 2.5-10 µM
[13] = test system: HCT-116; experiment: Antitumor activity against human HCT116 cells xenografted in chick embryo chorioallantoic membrane assessed as reduction in tumor volume by CAM assay; type: functional, cell-based; details: dose 5-10 µM
[14] = test system: HCT-116; experiment: Induction of DNA damage in human HCT-116 cells assessed as upregulation of gamma-H2AX level at 10 uM by immunoblotting analysis; type: functional, cell-based
[15] = test system: HCT-116; experiment: Induction of DNA damage in human HCT-116 cells assessed as upregulation of p53 level at 10 uM incubated for 24 hrs by immunoblotting analysis; type: functional, cell-based
[16] = test system: HCT-116; experiment: Induction of DNA damage in human HCT-116 cells assessed as upregulation of BAX level at 10 uM incubated for 24 hrs by immunoblotting analysis; type: functional, cell-based
[17] = test system: HCT-116; experiment: Induction of DNA damage in human HCT-116 cells assessed as downregulation of BCL2 level at 10 uM incubated for 24 hrs by immunoblotting analysis; type: functional, cell-based
[18] = test system: HCT-116; experiment: Induction of DNA damage in human HCT-116 cells assessed as upregulation of p53 level at 5 uM incubated for 24 hrs by immunofluorescence based analysis; type: functional, cell-based
[19] = test system: HCT-116; experiment: Induction of DNA damage in human HCT-116 cells assessed as upregulation of p53 level at 10 uM incubated for 24 hrs by immunofluorescence based analysis; type: functional, cell-based
[20] = test system: HCT-116; experiment: Induction of DNA damage in human HCT-116 cells assessed as upregulation of p21 level incubated for 24 hrs by PCR analysis; type: functional, cell-based; details: dose 2.5-10 µM
[21] = test system: HCT-116; experiment: Antitumor activity against human HCT116 cells xenografted in chick embryo chorioallantoic membrane assessed as reduction in angiogenesis by CAM assay; type: functional, cell-based; details: dose 5-10 µM

Chain of Cellular tumor antigen p53 (Homo sapiens) (P04637 whole entry, looked up): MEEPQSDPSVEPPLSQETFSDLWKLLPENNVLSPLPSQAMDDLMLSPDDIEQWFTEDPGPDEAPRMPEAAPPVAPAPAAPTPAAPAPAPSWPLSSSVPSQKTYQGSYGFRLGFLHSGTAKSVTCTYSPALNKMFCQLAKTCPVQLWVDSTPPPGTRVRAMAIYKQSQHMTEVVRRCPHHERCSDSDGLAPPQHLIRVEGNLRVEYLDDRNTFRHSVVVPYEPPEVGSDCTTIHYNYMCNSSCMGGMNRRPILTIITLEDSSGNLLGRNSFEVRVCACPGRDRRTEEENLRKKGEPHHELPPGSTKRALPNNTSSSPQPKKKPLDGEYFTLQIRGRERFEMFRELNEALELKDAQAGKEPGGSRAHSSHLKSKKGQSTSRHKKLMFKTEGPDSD

| Structure (SMILES) | IC50 [1] [µM] | IC50 [2] [µM] | IC50 [3] [µM] | IC50 [4] [µM] | inhibition [5] | inhibition [7] | Activity [8] | further results |
| --- | --- | --- | --- | --- | --- | --- | --- | --- |
| O=C(Nc1ccc(OCc2ccccn2)c(Cl)c1)c1ccc(CN2CCN(C(=O)C3CC3)CC2)cc1 | 7.21 | 13.5 | 17.8 | 18.5 | Active; Significantly Decreased Colony Formation | Active | Dose-dependent-effect; Stronger Inhibition | inhibition [6]: Active; inhibition [9]: Active; Activity [10]: Active; Activity [11]: Active; Activity [12]: Dose-dependent-effect; Activity [13]: Dose-dependent-effect; Activity [14]: Time-dependent-effect; Activity [15]: Active; Activity [16]: Active; Activity [17]: Active; Activity [18]: Active; Activity [19]: Active; Activity [20]: Dose-dependent-effect; Activity [21]: Dose-dependent-effect |
| CCOc1cc2ncc(C#N)c(Nc3ccc(OCc4ccccn4)c(Cl)c3)c2cc1NC(=O)/C=C/CN(C)C [NERATINIB] | 17.3 | 18.2 | 27.7 | 19.5 | Active | Active | Active | – |
